Here are results for six compounds from ChEMBL document CHEMBL1201862, “PubChem BioAssay data set” (2004).

Active and inactive are the calls of the source. Bounds are passed on as bounds.

For one experiment, the target named is Genome polyprotein (dengue virus type 2, UniProt P29990). The experiment in a line: Dengue-2 NS5 methyltransferase inhibitors, primary screen, biochemical, confirmation dose response (AID 588689). In kind it is functional.
Another experiment addresses T1, Aminopeptidase N (Plasmodium falciparum FcB1/Columbia, UniProt O96935).
T1 sequence (O96935 whole entry): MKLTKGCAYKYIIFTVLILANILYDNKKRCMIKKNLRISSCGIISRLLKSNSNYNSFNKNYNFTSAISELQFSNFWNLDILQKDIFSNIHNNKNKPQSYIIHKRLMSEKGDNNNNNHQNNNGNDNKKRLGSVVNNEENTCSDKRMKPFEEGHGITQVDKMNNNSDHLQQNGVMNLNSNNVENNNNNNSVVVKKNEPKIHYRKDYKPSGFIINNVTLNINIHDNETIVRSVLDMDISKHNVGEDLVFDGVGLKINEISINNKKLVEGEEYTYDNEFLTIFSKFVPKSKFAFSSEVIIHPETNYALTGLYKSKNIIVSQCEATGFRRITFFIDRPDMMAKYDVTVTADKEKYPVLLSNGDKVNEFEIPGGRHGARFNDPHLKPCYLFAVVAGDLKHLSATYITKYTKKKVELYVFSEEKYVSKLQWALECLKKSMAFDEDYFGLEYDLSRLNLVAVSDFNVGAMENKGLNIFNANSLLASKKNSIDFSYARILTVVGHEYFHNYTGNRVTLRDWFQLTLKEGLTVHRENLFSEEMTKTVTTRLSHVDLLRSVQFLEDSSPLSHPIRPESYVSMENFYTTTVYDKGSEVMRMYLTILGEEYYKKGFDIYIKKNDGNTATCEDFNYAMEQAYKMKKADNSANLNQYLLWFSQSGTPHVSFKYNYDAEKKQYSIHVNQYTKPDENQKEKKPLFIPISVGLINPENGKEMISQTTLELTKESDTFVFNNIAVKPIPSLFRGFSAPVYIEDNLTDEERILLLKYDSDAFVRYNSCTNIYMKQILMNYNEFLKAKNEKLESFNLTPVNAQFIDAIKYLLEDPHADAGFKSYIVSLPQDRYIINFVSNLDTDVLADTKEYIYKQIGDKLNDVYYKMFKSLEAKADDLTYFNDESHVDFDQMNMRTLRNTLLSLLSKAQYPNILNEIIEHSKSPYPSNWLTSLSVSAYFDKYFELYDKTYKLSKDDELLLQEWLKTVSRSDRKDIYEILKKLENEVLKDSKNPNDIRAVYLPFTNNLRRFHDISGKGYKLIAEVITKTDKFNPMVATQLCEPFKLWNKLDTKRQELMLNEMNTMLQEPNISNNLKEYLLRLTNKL
The experiment in a line: P. falciparum M1AAP inhibitors, biochemical, fluorogenic H-Leu-NHMec substrate, 1536-well (AID 1445). Details: species or system Plasmodium falciparum 3D7, 3D7.

Experiment [1] has as its target T2, Corticotropin-releasing factor receptor 2/Corticotropin-releasing factor-binding protein (Homo sapiens, UniProt P24387+Q13324).
T2 sequence (Q13324 whole entry): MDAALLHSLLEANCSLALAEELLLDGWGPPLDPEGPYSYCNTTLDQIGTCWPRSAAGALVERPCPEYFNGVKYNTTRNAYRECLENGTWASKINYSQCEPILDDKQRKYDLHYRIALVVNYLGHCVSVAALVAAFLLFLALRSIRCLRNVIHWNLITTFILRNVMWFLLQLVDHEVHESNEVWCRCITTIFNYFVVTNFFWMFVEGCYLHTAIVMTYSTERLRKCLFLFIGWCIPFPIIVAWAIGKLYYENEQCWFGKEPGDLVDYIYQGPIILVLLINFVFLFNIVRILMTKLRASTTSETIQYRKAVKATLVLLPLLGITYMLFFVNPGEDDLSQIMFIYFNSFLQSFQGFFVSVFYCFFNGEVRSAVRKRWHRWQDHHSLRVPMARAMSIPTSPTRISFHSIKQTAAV
T2 sequence (P24387 whole entry): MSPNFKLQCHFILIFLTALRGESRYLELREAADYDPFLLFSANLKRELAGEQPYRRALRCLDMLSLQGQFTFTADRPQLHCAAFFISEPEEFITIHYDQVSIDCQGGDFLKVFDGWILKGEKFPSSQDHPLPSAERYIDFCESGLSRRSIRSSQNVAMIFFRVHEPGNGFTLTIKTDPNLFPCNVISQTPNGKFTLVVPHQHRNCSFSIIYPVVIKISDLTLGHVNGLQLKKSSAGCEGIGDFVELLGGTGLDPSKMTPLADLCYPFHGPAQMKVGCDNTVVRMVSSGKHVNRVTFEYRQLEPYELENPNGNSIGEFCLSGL
The experiment in a line: Dose Response confirmation of uHTS hits for small molecule antagonists of the CRF-binding protein and CRF-R2 receptor complex. The format is functional. Conditions: read-out: IC50_Mean.

A short description of experiment [2]: CRF-BP/CRF-R2 complex antagonists, dose response, cell-based, uHTS hits, 384-well (AID 651639). Conditions: read-out: IC50_Mean. In kind it is functional, Homo sapiens.
In experiment [3] the target is T2, Corticotropin-releasing factor receptor 2/Corticotropin-releasing factor-binding protein. The experiment in a line: activators of CRF receptor 2 with binding protein – uHTS hits, confirmation (AID 602473). The format is functional. Conditions: read-out: EC50_Mean.
Experiment [4] deals with Photoreceptor-specific nuclear receptor (Homo sapiens, UniProt Q9Y5X4). In kind it is functional, cell-based.
Sequence of Photoreceptor-specific nuclear receptor (Q9Y5X4 whole entry): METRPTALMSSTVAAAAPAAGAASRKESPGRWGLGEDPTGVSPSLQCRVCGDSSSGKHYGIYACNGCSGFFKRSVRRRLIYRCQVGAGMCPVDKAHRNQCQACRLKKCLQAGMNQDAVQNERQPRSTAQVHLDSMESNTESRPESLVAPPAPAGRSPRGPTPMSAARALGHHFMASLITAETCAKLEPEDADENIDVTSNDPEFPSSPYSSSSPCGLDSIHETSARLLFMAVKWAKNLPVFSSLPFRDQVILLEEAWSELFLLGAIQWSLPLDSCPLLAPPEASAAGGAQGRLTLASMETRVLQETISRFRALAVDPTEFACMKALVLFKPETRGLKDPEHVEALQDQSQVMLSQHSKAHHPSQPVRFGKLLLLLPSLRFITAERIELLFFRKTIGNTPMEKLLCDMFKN
The target in experiment [5] is T3, Replicative DNA helicase DnaB (Mycobacterium tuberculosis, UniProt P9WMR3).
T3 sequence (P9WMR3 whole entry): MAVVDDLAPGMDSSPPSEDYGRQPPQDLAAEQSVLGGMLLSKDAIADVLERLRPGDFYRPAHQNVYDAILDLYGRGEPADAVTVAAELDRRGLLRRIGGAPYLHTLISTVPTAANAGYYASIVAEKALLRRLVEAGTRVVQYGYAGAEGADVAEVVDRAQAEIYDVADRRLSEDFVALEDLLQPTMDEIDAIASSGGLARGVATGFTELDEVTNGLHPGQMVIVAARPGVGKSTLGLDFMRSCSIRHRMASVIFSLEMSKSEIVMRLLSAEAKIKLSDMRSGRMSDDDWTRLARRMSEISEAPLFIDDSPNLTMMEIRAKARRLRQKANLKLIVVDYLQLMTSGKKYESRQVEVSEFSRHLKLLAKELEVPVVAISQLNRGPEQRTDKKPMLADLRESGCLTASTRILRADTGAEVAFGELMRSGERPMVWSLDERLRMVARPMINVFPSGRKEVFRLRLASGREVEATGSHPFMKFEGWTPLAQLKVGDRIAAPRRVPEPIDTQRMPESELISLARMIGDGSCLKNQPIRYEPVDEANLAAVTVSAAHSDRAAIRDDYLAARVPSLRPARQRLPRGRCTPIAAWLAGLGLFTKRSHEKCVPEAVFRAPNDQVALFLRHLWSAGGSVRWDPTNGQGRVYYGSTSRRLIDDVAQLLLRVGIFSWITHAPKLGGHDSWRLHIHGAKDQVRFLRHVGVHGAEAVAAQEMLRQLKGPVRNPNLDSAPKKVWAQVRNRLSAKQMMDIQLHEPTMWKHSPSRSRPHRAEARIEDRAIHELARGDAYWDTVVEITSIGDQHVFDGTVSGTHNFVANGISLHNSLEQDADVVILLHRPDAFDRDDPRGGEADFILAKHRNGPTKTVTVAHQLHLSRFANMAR
Put plainly: DnaB intein splicing inhibitors, dose response, biochemical, cell-free fluorescence (AID 449749). In kind it is functional.

In experiment [6] the target is T4, Sentrin-specific protease 8 (Homo sapiens, UniProt Q96LD8).
T4 sequence (Q96LD8 whole entry): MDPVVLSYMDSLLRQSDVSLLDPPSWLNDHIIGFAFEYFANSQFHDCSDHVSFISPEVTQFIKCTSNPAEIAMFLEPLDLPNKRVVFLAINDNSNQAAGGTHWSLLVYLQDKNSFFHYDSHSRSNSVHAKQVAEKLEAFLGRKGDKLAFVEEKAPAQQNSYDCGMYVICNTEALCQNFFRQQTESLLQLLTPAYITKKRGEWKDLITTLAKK
The format is functional.

Experiment [7] deals with T4, Sentrin-specific protease 8. In kind it is functional. This is another data set of the same source.
The target in another experiment is T5, Protein RecA (Mycobacterium tuberculosis, UniProt P9WHJ3).
T5 sequence (P9WHJ3 whole entry): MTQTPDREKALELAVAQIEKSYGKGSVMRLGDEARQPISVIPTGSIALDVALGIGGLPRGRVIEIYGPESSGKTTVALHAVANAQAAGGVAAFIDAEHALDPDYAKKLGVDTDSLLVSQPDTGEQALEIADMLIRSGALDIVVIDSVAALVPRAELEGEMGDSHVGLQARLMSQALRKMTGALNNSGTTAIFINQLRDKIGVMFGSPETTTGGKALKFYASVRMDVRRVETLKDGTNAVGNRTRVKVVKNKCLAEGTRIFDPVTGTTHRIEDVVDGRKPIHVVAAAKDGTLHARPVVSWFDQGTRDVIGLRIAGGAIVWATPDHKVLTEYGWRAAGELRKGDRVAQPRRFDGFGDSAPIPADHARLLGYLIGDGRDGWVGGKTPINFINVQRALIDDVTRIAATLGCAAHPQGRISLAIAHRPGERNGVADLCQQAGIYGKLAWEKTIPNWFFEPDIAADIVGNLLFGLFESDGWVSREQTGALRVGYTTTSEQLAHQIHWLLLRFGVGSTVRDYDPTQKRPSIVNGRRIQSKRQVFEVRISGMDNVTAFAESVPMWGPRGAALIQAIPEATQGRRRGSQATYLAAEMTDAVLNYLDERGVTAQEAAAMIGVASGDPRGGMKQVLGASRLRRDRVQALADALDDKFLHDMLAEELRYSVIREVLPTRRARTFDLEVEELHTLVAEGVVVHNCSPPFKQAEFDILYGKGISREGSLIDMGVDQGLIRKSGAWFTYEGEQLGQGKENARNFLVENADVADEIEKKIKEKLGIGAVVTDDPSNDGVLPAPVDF
Put plainly: Fluorescence Cell-Free Homogeneous Dose Retest to Identify Inhibitors of RecA-Intein Splicing Activity. [Related pubchem assays (depositor defined):AID2097, AID2223, AID489010, AID492950]. The format is functional.

In experiment [8] the target is T6, Apoptotic protease-activating factor 1 (Homo sapiens, UniProt O14727).
T6 sequence (O14727 whole entry): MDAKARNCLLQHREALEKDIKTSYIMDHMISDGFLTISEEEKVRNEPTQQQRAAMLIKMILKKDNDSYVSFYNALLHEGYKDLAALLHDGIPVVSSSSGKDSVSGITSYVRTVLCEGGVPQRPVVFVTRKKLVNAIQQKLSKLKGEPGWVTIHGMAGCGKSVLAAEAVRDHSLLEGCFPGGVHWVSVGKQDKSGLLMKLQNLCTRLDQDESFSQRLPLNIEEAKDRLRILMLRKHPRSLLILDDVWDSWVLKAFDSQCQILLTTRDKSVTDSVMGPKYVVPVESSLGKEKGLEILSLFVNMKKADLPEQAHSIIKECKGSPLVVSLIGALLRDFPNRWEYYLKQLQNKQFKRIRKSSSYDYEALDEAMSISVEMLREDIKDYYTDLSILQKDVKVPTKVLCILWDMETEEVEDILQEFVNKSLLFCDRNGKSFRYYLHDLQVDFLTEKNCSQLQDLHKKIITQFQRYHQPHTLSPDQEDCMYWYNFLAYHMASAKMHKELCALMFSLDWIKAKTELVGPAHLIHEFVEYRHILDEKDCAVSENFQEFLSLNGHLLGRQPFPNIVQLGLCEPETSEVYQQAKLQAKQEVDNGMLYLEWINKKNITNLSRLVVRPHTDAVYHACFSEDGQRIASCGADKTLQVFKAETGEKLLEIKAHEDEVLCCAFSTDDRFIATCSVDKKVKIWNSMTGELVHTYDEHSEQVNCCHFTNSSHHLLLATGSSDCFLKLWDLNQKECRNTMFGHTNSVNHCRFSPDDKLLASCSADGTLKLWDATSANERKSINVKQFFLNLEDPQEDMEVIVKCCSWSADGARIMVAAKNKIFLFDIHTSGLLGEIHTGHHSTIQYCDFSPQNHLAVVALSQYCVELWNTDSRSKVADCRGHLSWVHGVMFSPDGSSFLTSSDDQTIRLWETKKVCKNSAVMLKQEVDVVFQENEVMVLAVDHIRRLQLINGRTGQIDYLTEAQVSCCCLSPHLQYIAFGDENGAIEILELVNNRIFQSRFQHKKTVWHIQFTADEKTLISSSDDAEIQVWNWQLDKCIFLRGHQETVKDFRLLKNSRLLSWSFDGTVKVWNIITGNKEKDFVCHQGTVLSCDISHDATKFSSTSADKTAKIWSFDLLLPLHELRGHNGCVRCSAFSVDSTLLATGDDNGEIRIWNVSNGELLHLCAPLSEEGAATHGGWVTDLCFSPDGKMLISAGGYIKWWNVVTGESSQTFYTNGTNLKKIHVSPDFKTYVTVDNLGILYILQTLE
The format is functional.

A further experiment relates to INS1. The experiment in a line: beta cell apoptosis inhibitors, cytokine rescue, dose response, luminescence, retest (AID 449756).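 Also: cell death triggered by IL-1 beta plus TNF-alpha plus IFN-gamma mixture; protective hits raise ATP signal compared with cytokine alone wells.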 In kind it is functional, cell-based. Conditions: Rattus norvegicus.
Experiment [9] is described as follows: miR-122 activators in hepatoma reporter cells, dose response, cell-based, Huh7 psiCHECK-miR122, Renilla luciferase, cherry-picked (AID 651956).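 Also: huh7 hepatoma cells stably carrying a psiCHECK-2 miR-122 sensor plasmid; renilla luciferase signal reporting endogenous miR-122 activity after 48 h compound exposure.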 In kind it is functional.

Sequence of Genome polyprotein (P29990 2492-3391 limits assumed): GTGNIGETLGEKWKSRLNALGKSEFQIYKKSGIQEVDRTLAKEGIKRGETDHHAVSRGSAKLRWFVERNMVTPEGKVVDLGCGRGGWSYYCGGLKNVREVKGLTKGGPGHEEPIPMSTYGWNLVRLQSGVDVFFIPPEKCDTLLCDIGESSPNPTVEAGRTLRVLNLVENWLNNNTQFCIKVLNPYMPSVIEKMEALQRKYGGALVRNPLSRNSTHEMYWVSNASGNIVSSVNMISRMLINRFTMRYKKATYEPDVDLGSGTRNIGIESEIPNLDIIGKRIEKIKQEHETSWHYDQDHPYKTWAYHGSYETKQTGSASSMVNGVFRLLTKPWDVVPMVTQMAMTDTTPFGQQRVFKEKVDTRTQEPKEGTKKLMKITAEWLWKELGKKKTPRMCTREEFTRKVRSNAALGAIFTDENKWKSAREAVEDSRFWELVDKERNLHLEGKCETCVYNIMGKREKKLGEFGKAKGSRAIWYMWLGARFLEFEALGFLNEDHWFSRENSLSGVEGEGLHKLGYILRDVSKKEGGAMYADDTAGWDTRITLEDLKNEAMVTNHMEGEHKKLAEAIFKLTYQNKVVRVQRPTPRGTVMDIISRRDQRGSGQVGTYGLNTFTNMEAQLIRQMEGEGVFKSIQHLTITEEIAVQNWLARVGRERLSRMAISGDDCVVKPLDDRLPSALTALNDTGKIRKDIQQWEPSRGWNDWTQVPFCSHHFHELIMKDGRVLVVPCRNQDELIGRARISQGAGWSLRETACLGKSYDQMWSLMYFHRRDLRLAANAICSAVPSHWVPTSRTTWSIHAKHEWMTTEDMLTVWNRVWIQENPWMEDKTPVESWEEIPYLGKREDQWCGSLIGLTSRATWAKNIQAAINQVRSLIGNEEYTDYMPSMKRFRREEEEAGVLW

With `CCOc1ccc(/C=C2\SC(=S)N(NS(=O)(=O)c3ccc(C)cc3)C2=O)cc1OC`, the IC50 at Genome polyprotein is 58.3 µM (active); on Aminopeptidase N, 34.2 µM (active); in experiment [1], 6.18 µM (active); in experiment [2], > 20 µM (inactive). Also, in experiment [3], the EC50 is > 53 µM (inactive).

Regarding `O=C(C1CCC(CNS(=O)(=O)c2cccc3nsnc23)CC1)N1CC=C(c2ccccc2)CC1` (stereo unspecified), the IC50 in [4] was 3.8 µM (active).

As a reminder, the AC50 is the concentration at which the activity in the assay is half-maximal. In the case of `Cc1n[nH]c(O)c1C(c1ccc(-c2cccc(Cl)c2)o1)c1c(C)n[nH]c1O`, the AC50 in experiment [5] is > 380 µM (inactive). In addition, the IC50 in [6] was 3.19 µM (active); at Genome polyprotein, 56.5 µM (active); in [7], 2.19 µM (active); in [8] it was 17.4 µM (active). In addition, the EC50 on Protein RecA was 66.2 µM (active).

`CC(Oc1ccc(Br)cc1)c1nc2c3ccccc3nc(S)n2n1` (stereo unspecified): the AC50 in the experiment on INS1 was 7.23 µM (active). The IC50 in experiment [4] was 3.74 µM (active).

On to `Cc1nn(C)cc1NC(=O)C[C@@H]1CC[C@@H]2[C@@H](COc3ccc(NC(=O)Nc4cccc(Cl)c4)cc3C(=O)N2C)O1`, for which the AC50 in [9] was 22.8 µM (active).

For the compound `COc1ccc(N2CCN(C(=O)CSc3nnc(CNc4ccccc4)o3)CC2)cc1`, in [9], the AC50 is 44.3 µM (active).
